Measurements from the NIST ThermoML archive (doi:10.1016/j.jct.2013.09.009).
± gives the expanded uncertainty stated by the source.

Experiment: cn = amount concentration of the nth substance listed, in mol/dm3
Details: 298.15 K, 101 kPa, Liquid, c1 = 1

With `CNCC(=O)O` [sarcosine] + O as the molecule, how does the speed of sound (Sing-around technique in a fixed-path interferometer) read?
Its speed of sound is 1561.4 ± 1.3 m/s.

What about the mass density (Vibrating tube method) of the same molecule?
Its mass density is 1023.26 ± 0.12 kg/m3.
